# Laboratory results: ChEMBL document CHEMBL5512615, “Targeting autophagy drug discovery: Targets, indications and development trends” (Eur J Med Chem, 2024)
# What was measured:
# [1] = target: T1, Patatin-like phospholipase domain-containing protein 2 (Homo sapiens, UniProt Q96AD5)
# T1 sequence (Q96AD5 whole entry): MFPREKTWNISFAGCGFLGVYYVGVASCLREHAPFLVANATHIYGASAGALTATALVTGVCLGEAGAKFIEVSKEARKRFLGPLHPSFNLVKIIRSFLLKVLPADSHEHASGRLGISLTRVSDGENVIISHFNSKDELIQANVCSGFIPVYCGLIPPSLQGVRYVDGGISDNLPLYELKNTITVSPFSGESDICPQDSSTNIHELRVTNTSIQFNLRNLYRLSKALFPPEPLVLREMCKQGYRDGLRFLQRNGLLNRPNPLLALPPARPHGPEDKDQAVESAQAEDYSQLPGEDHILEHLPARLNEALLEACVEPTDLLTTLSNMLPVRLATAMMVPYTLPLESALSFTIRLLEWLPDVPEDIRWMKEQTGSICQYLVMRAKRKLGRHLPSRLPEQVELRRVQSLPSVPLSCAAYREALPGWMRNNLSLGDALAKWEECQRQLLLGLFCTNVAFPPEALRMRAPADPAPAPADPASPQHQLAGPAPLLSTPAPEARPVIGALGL
# Description: Inhibition of ATGL ubiquitination in human HepG2 cells assessed as inhibition constant
# [2] = target: T2, Ubiquitin carboxyl-terminal hydrolase 13 (Homo sapiens, UniProt Q92995)
# T2 sequence (Q92995 whole entry): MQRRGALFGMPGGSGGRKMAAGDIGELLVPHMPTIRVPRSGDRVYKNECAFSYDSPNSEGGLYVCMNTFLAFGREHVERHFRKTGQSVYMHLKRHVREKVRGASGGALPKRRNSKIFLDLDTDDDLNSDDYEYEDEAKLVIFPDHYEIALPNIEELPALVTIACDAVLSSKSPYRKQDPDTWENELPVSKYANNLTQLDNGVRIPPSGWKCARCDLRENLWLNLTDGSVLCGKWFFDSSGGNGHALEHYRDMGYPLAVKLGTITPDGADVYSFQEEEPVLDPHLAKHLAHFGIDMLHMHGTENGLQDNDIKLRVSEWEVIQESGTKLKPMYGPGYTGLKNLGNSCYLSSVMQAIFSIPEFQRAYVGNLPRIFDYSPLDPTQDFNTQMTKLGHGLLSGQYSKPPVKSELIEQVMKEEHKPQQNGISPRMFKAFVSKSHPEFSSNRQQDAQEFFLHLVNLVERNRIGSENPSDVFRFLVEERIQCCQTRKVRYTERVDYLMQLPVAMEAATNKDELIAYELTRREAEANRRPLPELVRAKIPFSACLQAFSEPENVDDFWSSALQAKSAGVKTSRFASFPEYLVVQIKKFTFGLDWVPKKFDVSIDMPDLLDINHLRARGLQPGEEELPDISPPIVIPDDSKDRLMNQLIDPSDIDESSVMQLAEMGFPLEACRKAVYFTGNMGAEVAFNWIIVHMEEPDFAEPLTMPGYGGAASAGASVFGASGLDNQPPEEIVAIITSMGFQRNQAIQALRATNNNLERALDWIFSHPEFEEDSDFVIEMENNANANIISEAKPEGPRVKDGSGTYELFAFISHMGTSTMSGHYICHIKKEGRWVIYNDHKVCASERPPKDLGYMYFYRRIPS
# Description: Inhibition of USP13 (unknown origin)
# [3] = target: Ubiquitin carboxyl-terminal hydrolase 10 (Homo sapiens, UniProt Q14694); assay: Inhibition of USP10 (unknown origin)
# Chain of Ubiquitin carboxyl-terminal hydrolase 10 (Q14694 whole entry): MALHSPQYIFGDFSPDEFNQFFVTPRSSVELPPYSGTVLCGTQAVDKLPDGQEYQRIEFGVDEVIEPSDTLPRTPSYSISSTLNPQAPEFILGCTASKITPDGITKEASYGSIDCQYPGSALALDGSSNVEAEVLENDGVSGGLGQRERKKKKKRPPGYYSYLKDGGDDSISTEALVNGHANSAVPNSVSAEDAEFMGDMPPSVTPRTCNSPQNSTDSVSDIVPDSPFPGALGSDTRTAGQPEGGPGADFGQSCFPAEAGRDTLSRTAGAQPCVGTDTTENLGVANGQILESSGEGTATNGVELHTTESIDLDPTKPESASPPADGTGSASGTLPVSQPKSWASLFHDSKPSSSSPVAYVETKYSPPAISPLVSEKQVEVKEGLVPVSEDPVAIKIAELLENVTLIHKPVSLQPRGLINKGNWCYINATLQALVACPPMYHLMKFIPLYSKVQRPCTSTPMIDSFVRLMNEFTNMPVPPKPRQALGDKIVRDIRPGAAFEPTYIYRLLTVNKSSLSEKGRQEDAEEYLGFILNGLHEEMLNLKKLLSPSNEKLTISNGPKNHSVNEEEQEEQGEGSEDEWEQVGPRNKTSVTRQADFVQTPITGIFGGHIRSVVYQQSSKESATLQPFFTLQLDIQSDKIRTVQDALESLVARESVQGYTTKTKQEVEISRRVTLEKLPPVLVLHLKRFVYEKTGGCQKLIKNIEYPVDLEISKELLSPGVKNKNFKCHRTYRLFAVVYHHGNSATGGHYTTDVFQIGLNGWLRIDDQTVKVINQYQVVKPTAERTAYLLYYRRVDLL
# [4] = target: Ferritin heavy chain (Homo sapiens, UniProt P02794)
# Chain of Ferritin heavy chain (P02794 whole entry): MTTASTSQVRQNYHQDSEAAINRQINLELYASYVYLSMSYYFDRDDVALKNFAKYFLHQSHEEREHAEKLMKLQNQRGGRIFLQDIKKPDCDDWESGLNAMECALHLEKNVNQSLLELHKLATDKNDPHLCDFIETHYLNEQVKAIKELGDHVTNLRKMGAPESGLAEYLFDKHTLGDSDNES
# Description: Inhibition of FTH1 (unknown origin)
# [5] = target: GABA-A receptor; anion channel
# Description: Inhibition of GABA receptor (unknown origin)
# [6] = tested on: A549; assay: cells; settings: Homo sapiens
# Description: Antiproliferative activity against human A549 cells assessed as reduction in cell viability by MTT assay
structure (smiles),measurement,setting,value
N[C@@H]1CCCN(c2c(/C=C3\SC(=O)NC3=O)cccc2-c2ccccc2)C1,Ki,[1],0.017 nM
Fc1ccc(CNc2ncnc3ccc(F)cc23)cc1,IC50,[2],690 nM
same,IC50,[3],580 nM
C=C1CC[C@H]2O[C@]2(C)CC[C@@H]2[C@@H]1CC2(C)C [(-)-CARYOPHYLLENE OXIDE],IC50,[4],1 nM
C[C@H]1[C@H](C)CC[C@]2(C(=O)O)CC[C@]3(C)C(=CC[C@@H]4[C@@]5(C)C[C@@H](O)[C@H](O)[C@@](C)(CO)[C@@H]5CC[C@]43C)[C@H]12 [ASIATIC ACID],IC50,[5],5900 nM
OC[C@H]1O[C@@H](c2ccc(Cl)c(Cc3ccc(O[C@H]4CCOC4)cc3)c2)[C@H](O)[C@@H](O)[C@@H]1O [EMPAGLIFLOZIN],EC50,[6],3 nM
